PubChem BioAssay (NCI)
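Method: 48-hour compound exposure of cells in 96-well plates, five concentrations, linear interpolation of endpoints. GI50 is the concentration that inhibits growth by half. TGI: total growth inhibition.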

Key:
Test in all cases: NCI tumour cell line growth inhibition, 48 h
A498 renal = tested on: A498 renal
A549 NSCLC = tested on: A549 NSCLC
ACHN renal = tested on: ACHN renal
DU-145 prostate = tested on: DU-145 prostate
K-562 leukemia = tested on: K-562 leukemia
NCI-H460 lung = tested on: NCI-H460 lung
PC-3 prostate = tested on: PC-3 prostate
SF-295 CNS = tested on: SF-295 CNS
SF-539 CNS = tested on: SF-539 CNS
SR leukemia = tested on: SR leukemia

SMILES	TGI (A498 renal) [µM]	TGI (A549 NSCLC) [µM]	TGI (ACHN renal) [µM]	TGI (DU-145 prostate) [µM]	TGI (K-562 leukemia) [µM]	TGI (NCI-H460 lung) [µM]	TGI (PC-3 prostate) [µM]	TGI (SF-295 CNS) [µM]	TGI (SF-539 CNS) [µM]	GI50 (A498 renal) [µM]	GI50 (A549 NSCLC) [µM]	GI50 (ACHN renal) [µM]	GI50 (DU-145 prostate) [µM]	GI50 (K-562 leukemia) [µM]	GI50 (NCI-H460 lung) [µM]	GI50 (PC-3 prostate) [µM]	GI50 (SF-295 CNS) [µM]	GI50 (SF-539 CNS) [µM]	TGI (SR leukemia) [µM]
C[C@@H](C1CC[C@H]2[C@@H]3[C@@H]4O[C@@H]4[C@@]4(O)CC=CC(=O)[C@]4(C)[C@H]3C[C@H](O)[C@]12C)[C@H]1C[C@]2(C)O[C@]2(C)C(=O)O1 (some centres undefined)	> 100	> 100	> 100	> 100	> 100	> 100	> 100	> 100	> 100	–	–	–	–	–	–	–	–	–	–
CC(C)C[C@H](CC(=O)O)C(=O)N[C@@H](Cc1c[nH]c2ccccc12)C(=O)N[C@@H](C)c1ccccc1	> 25	> 25	> 25	> 25	> 25	> 25	> 25	> 25	> 25	> 25	> 25	> 25	> 25	> 25	> 25	> 25	> 25	> 25	–
CC12Nc3ccccc3C1=C(c1ccccc1)CC1C(=O)OC(=O)C12 (centres undefined)	–	> 100	> 100	–	> 100	> 100	–	> 100	> 100	–	–	–	–	–	–	–	–	–	–
CCOC(=O)c1oc2c(OC)ccc3c2c1CCC3	> 100	> 100	> 100	–	> 100	> 100	–	> 100	> 100	–	–	–	–	–	–	–	–	–	> 100
O=C1/C(=C/c2cccnc2)SC(=S)N1Cc1ccco1	70.6	> 100	> 48.9	9.22	> 48	25.1	> 36.6	> 100	6.12	–	–	–	–	–	–	–	–	–	–
COc1ccc2[nH]c(Cl)c(/C=C3/C(=O)Nc4ccccc43)c2c1	–	5.36	5.85	2.35	13.2	> 34.8	6.84	1.28	0.731	–	1.2	0.786	0.279	0.444	1.25	0.676	0.574	0.483	–
c1ccc2c(c1)[nH]c1cnc3c4ncccc4[nH]c3c12	> 100	> 100	> 100	–	> 100	> 100	–	> 100	> 100	–	–	–	–	–	–	–	–	–	–
O=C1C=CC2(CCCCCCC2=O)CC1 (centres undefined)	> 100	> 100	> 100	–	–	> 100	–	> 100	> 100	–	–	–	–	–	–	–	–	–	> 100
Oc1ccc2ccccc2c1CCc1c(O)ccc2ccccc12	38.2	25.3	30	–	24.9	22.2	26.9	28.7	30.3	–	–	–	–	–	–	–	–	–	32.6
O=C(CCC(=O)Nc1ccccc1C(F)(F)F)N/N=C1\C(=N\NC(=O)CCC(=O)Nc2ccccc2C(F)(F)F)C(c2ccc3c(c2)OCO3)Oc2ccccc21 (centres undefined)	> 100	> 100	> 100	–	> 100	> 100	–	> 100	54.6	–	–	–	–	–	–	–	–	–	> 100
C/C=C1/CN2CCC34C(=C(C(=O)OC)C1CC23)Nc1ccc(O)cc14 (centres undefined)	> 100	> 100	> 100	> 100	–	> 100	> 100	> 100	> 100	–	–	–	–	–	–	–	–	–	–
CCCCCC/C=C/C#CCCCCCCCC(=O)O	> 100	> 100	> 100	> 100	> 100	> 100	> 100	> 100	> 100	–	–	–	–	–	–	–	–	–	–
COc1cc(/C=C/C(=O)c2cccc3ccccc23)cc(OC)c1OC	10.6	37	24.4	–	14.1	14.2	–	22.2	–	–	–	–	–	–	–	–	–	–	73.2
CN1CCN(CCCOc2cccc3nc(Nc4cc(Cl)cc(Cl)c4)ccc23)CC1	3.51	3.55	3.09	3.13	–	3.43	3.29	3.32	3.03	1.78	1.98	1.66	1.69	–	1.84	1.76	1.72	1.57	–
Cc1noc2cccc(O)c12	> 100	> 100	> 100	–	> 100	> 100	–	> 100	> 100	–	–	–	–	–	–	–	–	–	–
CC1=C(C(=O)Nc2cccc(Cl)c2)C(c2ccccc2O)C(C(=O)Nc2cccc(Cl)c2)=C(C)N1	38	43.8	53.8	–	53.7	46.4	–	40.6	34.3	–	–	–	–	–	–	–	–	–	–
O/N=C1/CCC/C1=C\c1ccccc1	–	> 100	> 100	–	> 100	> 100	–	> 100	> 100	–	–	–	–	–	–	–	–	–	> 100
Cc1ccccc1/C=C/c1csnn1	> 100	> 100	> 100	–	> 100	> 75.6	–	> 100	> 100	–	–	–	–	–	–	–	–	–	> 100
CCn1cnc(C[C@H](NC(=O)[C@H](CCCCNC(=O)Nc2cc(C(F)(F)F)cc(C(F)(F)F)c2)NC(=O)Nc2cc(C(F)(F)F)cc(C(F)(F)F)c2)C(=O)OC)c1	> 10	> 10	> 10	> 10	–	> 10	> 10	> 10	> 10	> 10	3.97	5.61	5.49	–	3.43	2.82	> 10	> 10	–
O=C1OC(CC(=O)c2ccc(F)cc2)C(Cl)=C1Cl (centres undefined)	–	> 100	> 100	–	> 100	52.2	–	> 100	35.2	–	–	–	–	–	–	–	–	–	79
NC1=NN(c2ccccc2)C(=O)C1C(=O)C(=O)Nc1ccc(Cl)cc1 (centres undefined)	> 100	> 100	> 100	–	> 100	> 100	–	> 100	> 100	–	–	–	–	–	–	–	–	–	> 100
CC(=O)OC1C[C@H]2C(OC(=O)c3ccccc3)C3C4(OC(C)=O)COC4C[C@H](OC(C)=O)[C@@]3(C)C(OC(C)=O)[C@H](OC(C)=O)C(=C1C)C2(C)C (some centres undefined)	> 100	> 100	> 100	–	> 100	> 100	–	> 100	> 100	–	–	–	–	–	–	–	–	–	–
